What is called IC50 is the concentration that gives 50% inhibition.

In the experiment the target is Nuclear receptor subfamily 1 group D member 1 (Homo sapiens) (UniProt P20393). Description: Rev-erbα–DNA interaction modulators – biochemical, FITC-DNA, fluorescence polarization, dose response (AID 1259321). The conditions noted are these: Rev-erb alpha-FITC-DNA binding.

Calls of active or inactive are those of the source.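 Rule for the calls: active = half-maximal concentration for changing protein binding to DNA, from the fitted dose curve, below 10 micromolar; inactive = the rest.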

Sequence of Nuclear receptor subfamily 1 group D member 1 (Homo sapiens) (P20393 whole entry, looked up): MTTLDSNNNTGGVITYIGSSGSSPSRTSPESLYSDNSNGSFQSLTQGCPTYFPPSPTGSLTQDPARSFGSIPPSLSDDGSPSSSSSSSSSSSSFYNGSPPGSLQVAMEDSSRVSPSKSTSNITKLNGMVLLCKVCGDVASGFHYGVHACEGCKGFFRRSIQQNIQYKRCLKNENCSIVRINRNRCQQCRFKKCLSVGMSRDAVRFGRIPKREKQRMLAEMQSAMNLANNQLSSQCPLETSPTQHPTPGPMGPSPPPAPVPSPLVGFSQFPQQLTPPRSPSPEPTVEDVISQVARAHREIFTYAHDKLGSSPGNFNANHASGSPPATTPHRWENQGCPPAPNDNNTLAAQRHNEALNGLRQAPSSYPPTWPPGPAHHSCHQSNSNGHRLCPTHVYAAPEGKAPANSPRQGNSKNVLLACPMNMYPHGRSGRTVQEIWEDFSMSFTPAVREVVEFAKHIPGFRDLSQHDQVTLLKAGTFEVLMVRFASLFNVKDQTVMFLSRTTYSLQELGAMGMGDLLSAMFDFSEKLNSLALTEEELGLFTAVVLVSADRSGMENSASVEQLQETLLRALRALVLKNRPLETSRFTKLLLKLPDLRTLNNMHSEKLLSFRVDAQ

Turning to `O=C(COc1ccc2ccccc2c1Br)NNC(=O)Nc1ccccc1`, the IC50 was 0.778 µM.
On to `CCc1ccc(NC(=O)CSc2nc3ncc(Br)cc3[nH]2)cc1`, for which the IC50 is 1.53 µM.
With `Cc1ccc(-c2nnc(NCc3nc4ccccc4[nH]3)c3ccccc23)cc1S(=O)(=O)N(C)C`, the IC50 entry was “inactive”.
For `CCOC(=O)C(C)Sc1cc(CS(=O)(=O)c2ccccc2)nc(-c2ccccc2)n1` (configuration not stated) the value was > 40 µM (inactive).
For `COc1ccccc1CNc1ncnc2cc(Cl)ccc12` the value was 2.42 µM; for `NS(=O)(=O)c1ccc(CCNc2nc3c(-c4cccc(F)c4)nnn3c3ccccc23)cc1`, > 40 µM (inactive); for `CC(=O)Nc1ccc(N2C(=O)c3cccc4c(O)ccc(c34)C2=O)cc1`, 0.328 µM.
With `Cc1nc(-c2ccccc2)nc2[nH]c(-c3ccccc3)cc(=O)c12` the entry was “inactive”; with `COc1ccc(Cn2ccc3ccc(-c4ccc5ccn(C(=O)c6ccc(C)cc6)c5c4)cc32)cc1`, > 40 µM (inactive); with `O=C(N=c1ccn(-c2nc3ccccc3nc2NS(=O)(=O)c2ccc(Cl)cc2)cc1)c1cccs1`, > 40 µM (inactive).
In the case of `CSc1ccc(SC2CN(Cc3ccc(C)cc3)S(=O)(=O)C2)cc1` (configuration not stated), the IC50 result was “inactive”.
`COc1ccc(C(=O)NNC(=O)C(Cc2ccc(O)cc2)NC(=O)c2ccccc2NC(=O)c2ccc(OC)cc2)cc1` (configuration not stated): the IC50 result is “inactive”.
With `CC(=O)c1cnc2c(-c3cccc(Br)c3)cnn2c1C` the figure was > 40 µM (inactive); with `COc1ccc(-c2nnc(NC(=O)C(C)C)s2)c(OC)c1`, “inactive”; with `Fc1ccc(-n2c(-c3cccs3)nc3nc4ccccc4nc32)cc1`, 4.41 µM.
For `COc1ccc2nc(SCC(=O)Nc3ccc4sc(C)nc4c3)c(C#N)cc2c1` the value was 1.98 µM; for `COc1ccc(C(=O)Nc2nc3ccc4nc(C)sc4c3s2)cc1`, 9.47 µM.
With `CSc1nc(N)c(C#N)c(-c2ccc(Cl)cc2)c1C#N` the figure was 4.85 µM.
For the compound `Cn1c2ccccc2n2c(=O)c(Cl)c(-c3ccccc3)c(C#N)c12`, the IC50 is 3.4 µM.
With `C=CCN1C(=O)/C(=C2/Sc3ccc(OC)cc3N2C)SC1=NCc1ccccc1` the figure was 6.32 µM; with `C/C=C(/C(=C/C)c1ccc(O)cc1)c1ccc(O)cc1`, > 40 µM (inactive); with `O=c1sc(N2CCN(c3ccc(F)cc3)CC2)nc2ccsc12`, “inactive”.
With `O=C(CSc1nnc(-c2cccs2)o1)c1ccc2c(c1)OCO2` the entry was “inactive”.
With `C=CCn1c(=NC(=O)c2ccco2)sc2cc(C(=O)OC)ccc21` the entry was “inactive”; with `CCN1C(=O)CSC1=NC12CC3CC(CC(C3)C1)C2`, > 40 µM (inactive); with `CCC(C)(C)c1ccc(OCCCC[n+]2cccc(C)c2)c(C(C)(C)CC)c1`, 4.39 µM.
For the compound `NS(=O)(=O)c1ccc(CCn2c(=S)[nH]c3ccc(F)cc3c2=O)cc1`, the IC50 was > 40 µM (inactive).
For `COc1cccc(C(=O)CSc2nnc(-c3cc(OC)cc(OC)c3)o2)c1` the value was “inactive”.
With `O=C(Nc1nc2ccsc2c(=O)s1)c1ccc(Cl)cc1` the figure was 7.69 µM; with `CN1C(=O)c2cc(NC(=O)Nc3ccccc3F)ccc2OC[C@H]2O[C@@H](CC(=O)NCc3ccc(-c4ccccc4)cc3)CC[C@@H]21`, 3.55 µM.
For `Cc1cc(C)c2cc(C#N)c(SCC(=O)Nc3ccc4c(c3)OCO4)nc2c1` the value was 7.14 µM; for `Cn1cc(/C=C/c2cc[n+](C)cc2)c2cc(Cl)ccc21`, > 40 µM (inactive).
Turning to `CSc1ccccc1-c1nnc(-c2ccc(Cl)c(Cl)c2)o1`, the IC50 was 8.81 µM.
For `O=C(CCc1c[nH]c2ccccc12)NCCc1ccc(Cl)cc1` the value was > 40 µM (inactive); for `CCCCc1nc2sc3c(SCCN(C)C)ncnc3c2c2c1CCC2`, 7.04 µM; for `CCNC(=O)C[C@H]1CC[C@H]2[C@@H](COc3ccc(NC(=O)c4ccc5c(c4)OCO5)cc3C(=O)N2C)O1`, “inactive”.
`COc1ccc(CC(=O)Nc2cc(C)c3c(=O)oc4ccccc4c3n2)cc1`: the IC50 was 4.42 µM.
With `Cc1coc2cc3oc(=O)c(Cc4ccccc4)c(C)c3cc12` the entry was “inactive”; with `c1cnc(SCC2CCCCC2)c(-c2nc3ccccc3[nH]2)c1`, 7.2 µM; with `O=C(CSc1nc2ccccc2c(=O)n1-c1ccc(F)cc1)Nc1cc(S(=O)(=O)N2CCOCC2)ccc1Cl`, > 40 µM (inactive).
With `CCn1c(SCC(=O)Nc2cc(C)on2)nc2sc(C)c(C)c2c1=O` the figure was 4.73 µM; with `Cc1ccsc1C(=O)Nc1ccc(O)c(-c2nc3ccccc3s2)c1`, 6.87 µM; with `CCN(CC)S(=O)(=O)c1ccc(C(=O)OCCN2C(=O)c3cccc4c(N5CCOCC5)ccc(c34)C2=O)cc1`, > 40 µM (inactive).
On to `CCOc1ccccc1CNC(=O)C1CCN(c2nnc(C)c3c(C)n(-c4ccc(C)cc4)nc23)CC1`, for which the IC50 is > 40 µM (inactive).
For `Cc1n[nH]c(C)c1N1C(=O)c2cccc3c(N4CCCCCC4)ccc(c23)C1=O` the value was 3.61 µM; for `CCOc1ccc(CCNC(=O)c2cc(-c3ccccc3)c(N3CCOCC3)s2)cc1`, 4.5 µM; for `CCOC(=O)/C(=C\C=C1/Sc2cc(OCC)c(OCC)cc2N1CC)C(C)=O`, 5.55 µM.
Turning to `O=S(=O)(Cc1cc(NCc2ccccc2)nc(-c2ccncc2)n1)c1ccccc1`, the IC50 is > 40 µM (inactive).
With `CC(=O)Oc1c(/C=C(\C#N)C(N)=O)[nH]c2ccccc12` the figure was 2.18 µM; with `O=C(CSc1ncnc2c1oc1ccccc12)Nc1cccc(F)c1`, 2.51 µM.
Turning to `N#Cc1c(N)nc(SCC(=O)C23CC4CC(CC(C4)C2)C3)c(C#N)c1-c1ccc(Cl)cc1`, the IC50 was > 40 µM (inactive).
With `CCN(CC(=O)NCc1ccc(Cl)cc1)C(=O)c1ccc2cc(OC)ccc2c1` the figure was 4.52 µM; with `COc1ccccc1NC(=O)CSc1nc(N)c(C#N)cc1C#N`, “inactive”.
With `CCCCN1C(=O)/C(=C/C=C2\SCCN2C)SC1=S`, the IC50 was 3.18 µM.
On to `N#CC1=C(SCC(N)=O)NC2=C(C(=O)c3ccccc32)C1c1ccc(Cl)cc1` (configuration not stated), for which the IC50 is 7.01 µM.
With `N=C1C(c2nc3ccccc3s2)=C(O)CN1NC(=O)c1c[nH]c2ccccc12` the figure was 4.45 µM; with `C=CCNC(=O)c1ccc(-c2nc(-c3ccc(Cl)cc3Cl)cs2)cc1`, 4.59 µM.
Consider `CCOC(=O)/C(C#N)=C/c1cc2ccccc2nc1N1CCCCC1`, for which the IC50 was > 40 µM (inactive).
In the case of `COc1ccc(-n2nc(C(=O)NCC(=O)Nc3cccc(Cl)c3)c3ccccc3c2=O)cc1`, the IC50 result is “inactive”.
As for `O=C1c2cccc3c(O)ccc(c23)C(=O)N1c1ccc(Cl)cc1`, the IC50 was 2.42 µM.
For `CCN(CC)c1ccc(C=C2SC(=S)NC2=O)cc1` the value was 6.72 µM.
For `COc1ccc2c(C)cc(SCC(=O)Nc3ncc(Cl)cc3Cl)nc2c1` the value was 7.03 µM; for `CCNC(=O)Nc1ccc2c(c1)C(=O)N(C)[C@H]1CC[C@H](CC(=O)N[C@H](C)c3ccccc3)O[C@@H]1CO2`, “inactive”; for `COc1ccccc1NC(=O)c1sc2ncn(Cc3cccc(C)c3)c(=O)c2c1C`, 0.38 µM.
With `Cc1cc(C)c(NC(=O)CSc2nc3ncc(Br)cc3[nH]2)c(C)c1` the figure was > 40 µM (inactive).
For the compound `CCSc1nnc(-c2ccc(Cl)cc2)c2ccccc12`, the IC50 is 7.11 µM.
With `Cc1cc(OC(C)C(=O)NCc2cccnc2)c2c(C)c(Cc3ccccc3)c(=O)oc2c1` (configuration not stated) the entry was “inactive”; with `Brc1ccc(-c2nn3c(-c4ccccc4)nnc3s2)cc1`, > 40 µM (inactive); with `CCOC(=O)c1sc(NC(=O)c2ccc(S(=O)(=O)N(C)C)cc2)nc1C`, “inactive”.
For `Cc1ccc(C)c(Nc2nc3c(S(=O)(=O)c4ccccc4)nnn3c3ccccc23)c1` the value was 8.48 µM.
With `CCOC(=O)c1sc(NC(=S)NC(=O)c2cccc(OC)c2)nc1C` the figure was 8.54 µM; with `Cc1ccc(-c2nc(NC(=O)CSc3cc(C)c4ccccc4n3)ns2)cc1`, 1.91 µM.
With `Cc1c(Br)ccc(NC(=O)Cn2nc(-c3cccs3)ccc2=O)c1C`, the IC50 is 4.84 µM.
With `Cc1ccccc1CNc1ncnc2cc(Cl)ccc12` the figure was 0.98 µM.
For `Cc1oc2cc3oc(=O)c4c(c3cc2c1C)CCC4` the value was > 40 µM (inactive); for `CC(OC(=O)c1cc2c(ccc3ccccc32)oc1=O)c1nc2ccccc2s1` (configuration not stated), “inactive”.
On to `N#Cc1c(N)nc(Sc2ccc(Cl)cc2)c(C#N)c1-c1ccccc1Cl`, for which the IC50 is 6.32 µM.
With `CCOC(=O)C1CCCN(c2ccc([N+](=O)[O-])c3nonc23)C1` (configuration not stated), the IC50 is > 40 µM (inactive).
Regarding `COC(=O)Cn1cc(/C=C/c2cc[n+](C)cc2)c2ccccc21`, the IC50 entry was “inactive”.
For `CC[n+]1c(/C=C/c2c[nH]c3ccccc23)ccc2cc(C)ccc21` the value was “inactive”; for `CCc1cc2cc(C)cc(C)c2nc1SCC(=O)N1CCCC1`, > 40 µM (inactive).
In the case of `O=C(O)c1ccccc1C(c1ccccc1)c1ccccc1O` (configuration not stated), the IC50 result is “inactive”.
With `Cc1cc(C(F)(F)F)c2c(N)c(C(=O)Nc3cc(C)on3)sc2n1` the entry was “inactive”; with `CN1C(=O)N(C)c2ccc(Br)c3cccc1c23`, > 40 µM (inactive).
As for `Nc1ccc(-c2c3ccc(=O)cc-3oc3cc(O)ccc23)cc1C(=O)O`, the IC50 is 5.38 µM.
With `CCOc1ccccc1-c1nc(-c2ccc(NC(=O)Cc3ccc(OC)cc3)cc2)no1` the figure was 6.52 µM; with `C=CCOc1ccc(C2C(C(=O)c3cccs3)=C(O)C(=O)N2c2nnc(C)s2)cc1` (configuration not stated), 3.99 µM.
With `O=C(CCCn1c(=S)[nH]c2cc3c(cc2c1=O)OCO3)NCc1cccc(Cl)c1` the figure was > 40 µM (inactive); with `COc1ccc(-c2nn(C)c(=O)c3ccccc23)cc1NC(=O)COc1ccccc1`, 7.9 µM; with `N#Cc1c(-c2cccs2)cc(C2CC2)nc1SCC(N)=O`, 1.35 µM.
On to `Cc1sc2nc(SC(C)C)nc(N)c2c1C`, for which the IC50 is 3.72 µM.
For `COC(=O)c1ccc(NC(=O)c2ccc3c(c2)C(=O)N(C)C3=O)cc1` the value was 4.43 µM.

These data come from PubChem BioAssay AID1259321 (Sanford-Burnham Center for Chemical Genomics, 2017).
